Laboratory results taken from article PMC6687188, “Novel lactate dehydrogenase inhibitors with in vivo efficacy against Cryptosporidium parvum” (PLoS Pathogens, 2019).
Where two headings read alike, the source gives them in different places.

How the values were obtained:
HCT-8 cells = assay: Compound cytotoxicity assay (WST-1 cell proliferation reagent); settings: read-out: CYTOTOXICITY IC50; HCT-8 cells, 24 h
Description: A colorimetric assay using the cell proliferation reagent WST-1 (Roche, USA) for the quantification of cell viability was performed. […] When the cells were confluent, the old medium was replaced with fresh medium with or without varying concentrations of chemical compound. After 24 h of culture, 10 μl of the cell proliferation reagent WST-1, (for quantification of cell viability) was added to each well, mixed and the plates incubated for 1 h at 37 C with 5% CO2 in the dark. […] Three independent assays were performed and the dose–response curves of the means of triplicate assays were generated using GraphPad PRISM software to derive the half maximal inhibitory concentration (IC50) of compounds in HCT-8 cells.

Cryptosporidium parvum [1] = assay: In vivo anti-Cryptosporidium efficacy: real-time PCR of C. parvum DNA in feces of infected Gamma interferon knockout mice; settings: 250, 500 and 1000 mg/kg; day 3 until day 8
Description: (§1) Gamma interferon knockout mice (B6.129S7-Ifng), 8 weeks of age, were purchased from Charles River, USA. The care and use of the mice was done following the guidelines of protocol number 17024 approved by the University of Illinois at Urbana-Champaign, USA. The animals were allowed to acclimatize for 1 week before experiments commenced. Stock solutions of recombinant CpLDH inhibitors reconstituted in DMSO were diluted in sterile distilled water to reduce the final amount of DMSO in the solution to less than 1% (v/v) before administering them to mice. […] An equivalent volume of PBS containing a cocktail of penicillin (100 units/ml), streptomycin (100 μg/ml), chloramphenicol (34 μg/ml) and amphotericin (0.25 μg/ml) was added to the fecal samples and stored at 4°C until use for quantification of C. parvum genomic DNA load. […]
Genomic DNA was extracted from individual fecal samples collected from mice at different days as described above. […] Quantification of the amount of C. parvum 18s rRNA gene (GenBank accession number AF164102) was performed essentially as described previously. […] The PCR product was fractionated on agarose gel, extracted using the QIAquick Gel extraction kit (Qiagen, USA), and the concentration measured by Nanodrop Spectrophotometer (Fisher, USA). Ten-fold serial dilutions of the extracted DNA fragment were made and used as quantification standards for real-time PCR. […]

[2] = target: recombinant CpLDH protein (Cryptosporidium parvum, UniProt Q9GT92, F198L/K295E/R251K)
[3] = Tolerability in mice, daily oral gavage for 7 days; type: in vivo; settings: daily oral gavage over 7 days, no toxicity signs
Description: as §1, with “mice. Prior to testing the anti-Cryptosporidium effect of the inhibitors in mice, the tolerability of each inhibitor was tested by oral gavage using varying dosages (100–2000 mg/kg body weight) of each inhibitor in groups of mice (three mice for each dose) daily for 7 days. Mice were observed daily for signs of toxicity including changes from normal physical activity, respiration, body temperature, feeding, posture, fur condition or occurrence of death.” for “mice.”

Cryptosporidium parvum [4] = assay: Histopathology of distal small intestine of infected mice (denuded villi); type: in vivo; settings: 9 days post-infection
Description: Gamma interferon knockout mice (B6.129S7-Ifng), 8 weeks of age, were purchased from Charles River, USA. The care and use of the mice was done following the guidelines of protocol number 17024 approved by the University of Illinois at Urbana-Champaign, USA. The animals were allowed to acclimatize for 1 week before experiments commenced. Stock solutions of recombinant CpLDH inhibitors reconstituted in DMSO were diluted in sterile distilled water to reduce the final amount of DMSO in the solution to less than 1% (v/v) before administering them to mice. Prior to testing the anti-Cryptosporidium effect of the inhibitors in mice, the tolerability of each inhibitor was tested by oral gavage using varying dosages (100–2000 mg/kg body weight) of each inhibitor in groups of mice (three mice for each dose) daily for 7 days. Mice were observed daily for signs of toxicity including changes from normal physical activity, respiration, body temperature, feeding, posture, fur condition or occurrence of death. […] Mice were allocated to groups as follows: “Infected plus inhibitor treatment”; “Infected minus inhibitor treatment”; “Uninfected minus inhibitor treatment” and “Infected plus paromomycin treatment”. Each group contained at least three mice. Each mouse in the infection groups received 5,000 C. parvum oocysts (resuspended in 50 μl of PBS) by oral gavage. Mice were housed individually in cages lined with sterile gauze as bedding. One day post-infection (PI), daily oral gavage administration of recombinant CpLDH inhibitor or paromomycin commenced and continued for a total of 7 days. Untreated mice received an equivalent volume of sterile distilled water (containing DMSO equivalent to the amount administered in the inhibitor-treated group) by oral gavage. […] An equivalent volume of PBS containing a cocktail of penicillin (100 units/ml), streptomycin (100 μg/ml), chloramphenicol (34 μg/ml) and amphotericin (0.25 μg/ml) was added to the fecal samples and stored at 4°C until use for quantification of C. parvum genomic DNA load. […]

Cryptosporidium parvum [5] = assay: In vitro anti-Cryptosporidium assay in HCT-8 cells (immunofluorescence); type: cell-based; settings: for IC50: HCT-8 cells
Description: HCT-8 cells were cultured in supplemented RPMI-1640 medium in 96-well plates. When the cells were confluent, old medium was replaced with fresh medium. To one set of wells, varying concentrations of recombinant CpLDH inhibitors (reconstituted in DMSO and diluted in RPMI medium) were added, while another set was left without inhibitors. Paromomycin was used as a positive control drug reconstituted in distilled sterile water. Then, 4 x 10^4 freshly excysted sporozoites were added to each well and incubated at 37°C with 5% CO2. After 2 h incubation, varying concentrations of CpLDH inhibitors were added to the set of infected cells that were not treated initially. Control infected cells without inhibitors, but with added DMSO volumes equivalent to those used in the wells with inhibitors, were included. The cells were maintained in culture for a total of either 48 h or 72 h and processed for immunofluorescence assay as previously described. Briefly, medium was decanted and the cells fixed with methanol-acetic acid (9:1) for 2 minute at room temperature. The cells were rehydrated and permeabilized by two successive washes with buffer (0.1% Triton X-100, 0.35 M NaCl, 0.13 M Tris-base, pH 7.6) and blocked with 5% normal goat serum, followed by staining with antibody to C. parvum (SporoGlo; Waterborn, Inc.) overnight at 4°C. The stained cells were washed twice with PBS, followed by water, and then imaged with an inverted fluorescence microscope. Fluorescence quantification was done using ImageJ version 1.37v software (NIH).

For O=C1c2ccccc2C(=O)c2c(O)c(O)cc(O)c21 [NSC10447], the IC50 (HCT-8 cells) was 290 µM, the “lower C. parvum DNA load in feces compared to infected untreated” value (Cryptosporidium parvum [1]) was “at least 50%” and the “MEAN CpLDH INHIBITION (%)” value [2] was 39.07%. For the same compound, the IC50 ([2]; read-out: IC50, inhibition of recombinant CpLDH activity) was 46.3 µM, the “highest tolerable dose in mice” value [3] was 1000 mg/kg and the “reduction of percentage of denuded intestinal villi compared to infected untreated mice” value (Cryptosporidium parvum [4]) was ≥ 7 fold. For the same compound, the “intestinal histopathology (in words)” value (Cryptosporidium parvum [4]; distal small intestine) was “prevented villous atrophy and maintained the integrity of the intestinal mucosa”, the “C. parvum proliferation in vitro, initial screen (in words)” value (Cryptosporidium parvum [5]; 48 h post-infection, concentration at least 50% lower than cytotoxicity IC50) was “significantly (P < 0.05) inhibit C. parvum proliferation” and the IC50 (Cryptosporidium parvum [5]; compound added at the time of infection, read-out: IC50, inhibition of C. parvum growth at 72 h p.i.) was 83.6 µM. It also gave an IC50 (Cryptosporidium parvum [5]; read-out: IC50, inhibition of C. parvum growth at 48 h p.i. (2 h), compound added 2 h post-infection) of 79.5 µM, an IC50 (Cryptosporidium parvum [5]; read-out: IC50, inhibition of C. parvum growth at 48 h p.i., compound added at the time of infection) of 72.7 µM and an IC50 (Cryptosporidium parvum [5]; read-out: IC50, inhibition of C. parvum growth at 72 h p.i. (2 h), compound added 2 h post-infection) of 95.2 µM.
